{"source": "patent US20150079105A1", "about": "“TREATMENT OF ACUTE INFLAMMATION IN THE RESPIRATORY TRACT” (UCL Business PLC, priority 2012, published 2015)", "type_in_all_cases": "in vivo", "key": {"[1]": {"test_system": "151 inflammatory mediators", "experiment": "Low density array (LDA) of 151 inflammatory mediators, lung mRNA of LPS challenged mice", "settings": "5 mg/kg i.p. 30 min after LPS, 3 h", "description": "FIG. 7. […] Lungs were removed, snap frozen and homogenised under liquid nitrogen before RNA was isolated and run on a low density gene array consisting of 151 inflammatory markers (A). […] Of these genes the pro-inflammatory cytokines TNF and IL-6, and the neutrophil chemoattractants CXCL1 and CXCL2, in addition to the chemokines CCL2 and CCL7 are further depicted (D). Data were analysed by one way ANOVA with Newman-Keuls Post Hoc test:, **p<0.01, *p<0.05.\nIn order to identify potential PAR1-regulated cytokine/chemokine candidates involved in LPS-induced ALI, a low density array (LDA) designed to profile 151 inflammatory mediators was used (FIG. 7a, FIG. 9). Total RNA was extracted from pulverised frozen pulverised lung using TRIzol (see manufacture's protocol (Invitrogen)), DNase treated using a DNA free kit (Ambion) and cDNA synthesised from 1 μg RNA/per sample using a Superscript kit (Invitrogen). Expression levels of known inflammatory mediators were analysed in cDNA using Taqman low density array qPCR chips and normalized to 18 s. Transcript data was analysed using the Gene Expression Similarity Suite (Genesis) software^51 and data represented as a heat map following log2 transformation and normalisation. Relative fold-difference in expression was calculated using the ΔΔT method with the saline treated group as the calibrator reference. […] The differential gene expression profile included the upregulation of several genes known to be important for the generation of inflammatory responses, such as TNF, interleukins, CXC chemokines and CC chemokines, including CCL2, CCL3, CCL4, CCL7, CCL22, CXCL1, CXCL2, CXCL10, CXCL13 and CX3CL1."}, "[2]": {"test_system": "TNF, IL-6, CXCL1, CXCL2, CCL2, CCL7", "experiment": "Cytokine and chemokine protein levels in lung homogenates of LPS challenged mice (Luminex bead array, ELISA)", "settings": "5 mg/kg i.p. 30 min after LPS, 3 h", "description": "FIG. 8. Mice were killed three hours after LPS (125 μg/kg i.n.) or saline challenge with or without the PAR1 antagonist RWJ-58259 (5 mg/kg) dosed i.p. after 30 min. Lungs were removed and homogenized. Levels of TNF (A), IL-6 (B) CXCL1 (C), and CXCL2 (D) protein were measured in lung homogenates using a Luminex bead array. Protein levels of CCL2 (H) and CCL7 (I) were measured from lung homogenates by ELISA. Mean and sem values of n=5 per group are shown. Data were analysed by one way ANOVA with Newman-Keuls post hoc test: ***p<0.001, **p<0.01, *p<0.05. […]\nCytokine and chemokine levels were measured by ELISA.\nIn order to confirm the LDA analysis of mRNA expression, the level of protein in lung homogenates was measured."}, "S. pneumoniae": {"test_system": "S. pneumoniae", "experiment": "S. pneumoniae challenge of mice (bacteria-induced ALI and host defense)", "settings": "5 mg/kg i.p. after 30 min", "description": "FIG. 4. Mice were killed three hours after inoculation with S. pneumoniae (serotype 19, 50 μl/mouse, 5×10^6 CFU/mouse i.n.) with and without the PAR1 antagonist RWJ-58259 (5 mg/kg) dosed therapeutically i.p. after 30 min. Lungs were lavaged (1.5 ml PBS total) and total BAL fluid leukocytes (a) and neutrophils (b) were quantified. S. pneumoniae was recovered from lung homogenates and individual colonies counted (c). Panels show mean values for n=5/group from two separate experiments. Data were analysed by one way ANOVA with Neuman-Keuls Post Hoc test: ***p<0.0001, *p<0.05.\nFIG. 5. Mice were killed three hours after inoculation with S. pneumoniae (serotype 2, clinical isolate D39, 50 μl/mouse, 5×10^6 CFU/mouse i.n.) with and without the PAR1 antagonist RWJ-58259 (5 mg/kg) dosed therapeutically i.p. after 30 min. Lungs were lavaged (1.5 ml PBS total) and total BAL fluid leukocytes (A), macrophages (B) and neutrophils (C) were quantified. Bronchoalveolar lavage fluid was collected and levels of thrombin-anti-thrombin (TAT) and serum albumin were quantified by ELISA (D and E). Panels show mean values for n=5/group from two separate experiments. Data were analysed by one way ANOVA with Neuman-Keuls Post Hoc test: ***p<0.0001, *p<0.05.\nFIG. 6. Mice were killed three hours after inoculation with S. pneumoniae (serotype 2, clinical isolate D39, 50 μl/mouse, 5×10^6 CFU/mouse i.n.) with and without the PAR1 antagonist RWJ-58259 (5 mg/kg) dosed therapeutically i.p. after 30 min. Lungs were lavaged (1.5 ml PBS total) and bacterial colony forming units (cfu) counted after 3 h (A) and 24 h (B). Bacterial invasive disease was measured by cfu in the lung (C) and spleen (D) after 24 h. Data were analysed by one way ANOVA with Neuman-Keuls Post Hoc test: n.s. not significant. […]\nIn order to examine the influence of PAR1 during host defense and in a model of bacteria-induced ALI, mice were challenged with S. pneumoniae (5×10^6 CFU/mouse, i.n.), which is the most common infectious agent responsible for ALI. Mice were inoculated with 50 μl S. pneumoniae (serotype 19, 5×10^6 CFU/mouse i.n.). 3 hours later, animals were sacrificed (urethane i.p. […]), endotracheally cannulated and bronchoalveolar lavage performed (1.5 ml, PBS). Total and differential counts were quantified following cytospin and albumin levels measured by ELISA (Bethyl Laboratories Inc, USA).\nPAR1 antagonism was also found to decrease the number of BAL macrophages (FIG. 5b). Bronchoalveolar lavage fluid was collected and levels of thrombin-anti-thrombin (TAT) and serum albumin were quantified by ELISA (FIG. 4d, e). […] Panels show mean values for n=5/group from two separate experiments. Data were analysed by one way ANOVA with Neuman-Keuls Post Hoc test: ***p<0.0001, *p<0.05. […]"}, "[3]": {"settings": "serotype 2, D39, after 24 hours"}, "[4]": {"settings": "serotype 19, 5×10^6 CFU/mouse i.n., 3 h"}}, "note": "Entries after “also recorded” stand apart in the source; their conditions may differ.", "data": [{"smiles": "NCC[C@H](NC(=O)[C@H](Cc1ccc(F)c(F)c1)NC(=O)Nc1ccc2c(CN3CCCC3)nn(Cc3c(Cl)cccc3Cl)c2c1)C(=O)NCc1ccccc1", "note": "[RWJ-58259]", "values": [{"measurement": "CCL2 (MCP-1) mRNA expression in lung", "setting": "[1]", "result": "decreased"}, {"measurement": "CCL7 (MCP-3) mRNA expression in lung", "setting": "[1]", "result": "decreased"}, {"measurement": "CXCL1 mRNA expression in lung", "setting": "[1]", "result": "unaffected"}, {"measurement": "CXCL2 mRNA expression in lung", "setting": "[1]", "result": "unaffected"}, {"measurement": "IL-6 mRNA expression in lung", "setting": "[1]", "result": "unaffected"}, {"measurement": "TNF mRNA expression in lung", "setting": "[1]", "result": "unaffected"}, {"measurement": "number of genes (markers) with decreased expression following PAR1 antagonism", "setting": "[1]; array of 151 markers", "result": 25, "unit": "genes"}, {"measurement": "CCL2 protein level in lung homogenates", "setting": "[2]", "result": "decreased"}, {"measurement": "CCL7 protein level in lung homogenates", "setting": "[2]", "result": "decreased"}, {"measurement": "CXCL1 protein level in lung homogenates", "setting": "[2]; listed as PAR1 antagonist", "result": "unaffected; also recorded: not affected"}, {"measurement": "CXCL2 protein level in lung homogenates", "setting": "[2]; listed as PAR1 antagonist", "result": "unaffected; also recorded: not affected"}, {"measurement": "IL-6 protein level in lung homogenates", "setting": "[2]; listed as PAR1 antagonist", "result": "did not attenuate; also recorded: not affected"}, {"measurement": "TNF protein level in lung homogenates", "setting": "[2]; listed as PAR1 antagonist", "result": "did not attenuate; also recorded: not affected"}, {"measurement": "PAR1 mediated disruption of the alveolar-capillary barrier (TAT and serum albumin in BAL fluid by ELISA)", "setting": "S. pneumoniae; serotype 2, D39, 3 h", "result": "reduce"}, {"measurement": "number of BAL macrophages", "setting": "S. pneumoniae; serotype 2, D39, 3 h", "result": "decrease"}, {"measurement": "S. pneumoniae colony counts recovered from BALF", "setting": "S. pneumoniae; serotype 2, D39, 24 hours", "result": "unaffected"}, {"measurement": "bacterial invasive disease, cfu in the lung", "setting": "S. pneumoniae; [3]", "result": "unaffected"}, {"measurement": "bacterial invasive disease, cfu in the spleen", "setting": "S. pneumoniae; [3]", "result": "unaffected"}, {"measurement": "S. pneumoniae colony counts recovered from BALF", "setting": "S. pneumoniae; serotype 2, D39, after three hours", "result": "unaffected"}, {"measurement": "neutrophil accumulation (BAL fluid)", "setting": "S. pneumoniae; [4]", "result": "reduced"}, {"measurement": "total cellular infiltration (BAL fluid leukocytes)", "setting": "S. pneumoniae; [4]", "result": "reduced"}, {"measurement": "S. pneumoniae colony counts recovered from whole lung (host defense)", "setting": "S. pneumoniae; serotype 19, 3 h", "result": "unaffected"}, {"measurement": "BAL fluid serum albumin following S. pneumoniae challenge", "setting": "S. pneumoniae; serotype not stated, 3 h", "result": "decreased"}]}]}
